Measured values as given in US4198504A, “[3-(Pyridinium)-7-(naphthyiridinyl carbonylamino)acetamido]cephalosporanic acid derivatives” (Bristol-Myers Company, priority 1978, dated 1980).
In brackets after ≈: the same amount, converted by molar mass.

Columns and labels:
[1] = system: E. coli (9), Klebsiella sp. (2), Pr. mirabilis (1), Sal. enteritidis (1); experiment: In vitro MIC, serial two-fold agar dilution, primary evaluation Gn-I (E. coli, Klebsiella sp., Pr. mirabilis, Sal. enteritidis); format: cell-based; conditions: CBPC = 100%; geometric mean of MICs; Mueller-Hinton agar
Outline: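 Two-fold serial agar dilution on Mueller-Hinton agar, inoculated with a Steers' replicator. Activity is expressed relative to carbenicillin set at 100%. Values are based on the geometric mean MIC per organism group.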

[2] = system: Pseudomonas aeruginosa A9843; experiment: In vivo efficacy, experimental infection in mice, intramuscular treatment, Pseudomonas aeruginosa A9843; parameters: species or system Pseudomonas aeruginosa (infected mice); conditions: A9843, im, 120 h, I.M., 100×LD50 challenge i.p., 5 days, read-out: PD50 Pseudomonas aeruginosa A9843
Description: (§1) The in vivo efficacy was evaluated by intramuscular treatment against three kinds of experimental infection in mice.
(§2) The in vivo tests were carried out using the following three pathogenic organisms:
Pseudomonas aeruginosa A9843
(§3) Mice were challenged intraperitoneally with approximately a 100×LD50 dose of the pathogens in a 5% mucin suspension. The mice were treated with test compound by I.M. route immediately after the bacterial challenge.

[3] = system: Ent. cloacae (3), Pr. vulgaris (1), Pr. morganii (1), S. marcescen (1); experiment: In vitro MIC, serial two-fold agar dilution, primary evaluation Gn-II (Ent. cloacae, Pr. vulgaris, Pr. morganii, S. marcescens); format: cell-based; conditions: CBPC = 100%; geometric mean of MICs; Mueller-Hinton agar
Outline: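 MICs by two-fold serial agar dilution on Mueller-Hinton agar with a Steers replicator. Reported as activity relative to carbenicillin set at 100%, computed from geometric mean MICs over the strains in each group.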

Ps. aeruginosa = experiment: In vitro MIC, serial two-fold agar dilution, primary evaluation Ps (6 strains); format: cell-based; conditions: CBPC = 100%; geometric mean of MICs; Mueller-Hinton agar
Outline: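 MIC by serial two-fold agar dilution on Mueller-Hinton agar (Steers' apparatus) against 6 Pseudomonas aeruginosa strains in primary screening. Values expressed as relative activity versus carbenicillin set at 100%, based on geometric mean MIC.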

Pseudomonas aeruginosa = experiment: In vitro MIC, serial two-fold agar dilution, secondary evaluation against Pseudomonas aeruginosa strains; format: cell-based; conditions: CBPC = 100%; geometric mean of MICs; 61-64 strains
Outline: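 Two-fold serial agar dilution on Mueller-Hinton agar (Steers' apparatus) against 64 P. aeruginosa strains. Values are relative activity versus carbenicillin set at 100%, based on geometric mean MICs.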

[4] = Antibiotic blood levels in mice following intramuscular administration (paper disc-agar diffusion, Escherichia coli NIHJ as assay organism); format: in vivo; conditions: mouse, im, I.M., 20 mg./kg.; for half-life: read-out: Blood level, Half-life; for Cmax: read-out: Blood level, Peak Concentration
Description: Antibiotic blood levels were determined in mice following intramuscular administration of the test compounds at 20 mg./kg. The blood samples were collected from the orbital sinuses into heparinized capillary tubes at 15, 30, 60 and 120 minutes after administration. The antibiotic concentration was determined by the paper disc-agar diffusion method using Escherichia coli NIHJ as the assay organism.

S. aureus = experiment: In vitro MIC, serial two-fold agar dilution, primary evaluation Gp (S. aureus, 6 strains); format: cell-based; conditions: CBPC = 100%; geometric mean of MICs; Mueller-Hinton agar
Outline: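 Two-fold serial agar dilution on Mueller-Hinton agar (Steers' replicator); GP group is 6 S. aureus strains. Values are relative activity versus carbenicillin (set at 100%), calculated from the geometric mean of the group's MICs.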

[5] = system: Staphylococcus aureus Smith; experiment: In vivo efficacy, experimental infection in mice, intramuscular treatment, Staphylococcus aureus Smith; parameters: species or system Staphylococcus aureus (infected mice); conditions: im, 120 h, I.M., 100×LD50 challenge i.p., 5 days, read-out: PD50 Staphylococcus aureus Smith
Description: as §1, §2
Staphylococcus aureus Smith
as §3

Escherichia coli Juhl = experiment: In vivo efficacy, experimental infection in mice, intramuscular treatment, Escherichia coli Juhl; parameters: species or system Escherichia coli (infected mice); conditions: im, 120 h, I.M., 100×LD50 challenge i.p., 5 days, read-out: PD50 Escherichia coli Juhl
Description: as §1, §2, §3

Solubility in water = format: physicochemical; conditions: lyophilized product, read-out: dissolved readily in water to give a solution
Description: This unfortunate characteristic renders them unsuitable for use by intravenous administration. Acceptable solubility for such use is at least 125 mgm./ml. so that 250 mgm. can be administered in 2 ml. of sterile solution. Suspensions cannot, of course, be administered intravenously. […] The latter would make possible a dosage of 500 mgm. in a 2 ml. vial.
To a mixture of nicotinic acid (492 mg., 4 m.moles) and NaHCO3 (336 mg., 4 m.moles) in 2 ml. of water were added sodium 7-[D-α-(4-hydroxy-1,5-naphthyridine-3-carboxamido)-α-phenylacetamido]cephalosporanate^(3), (600 mg., 1 m.mole) and KSCN (2.4 g., 25 m.moles) and the mixture was allowed to stand overnight at 50°-52° C. The reaction mixture was placed on the top of an HP-20 column (.phi. 10 mm., 90 ml.). The column was developed with 1 L each of water, 30% aqueous MeOH and 50% aqueous MeOH. The eluate was collected in 20-ml. fractions, monitoring with tlc (silica-gel plate, CH3 CN:H2 O=4:1, detected with I2). The desired product was found in the fractions eluted with 30% aqueous MeOH, which were combined and concentrated under reduced pressure. The concentrates showing a neutral pH were lyophilized to give 105 mg. (16%) of BB-S606, which dissolved readily in water to give a 25% (w/v) solution. It started to melt around 280° C. with gradual decomposition.

## O=C(O)Cc1ccc[n+](CC2=C(C(=O)[O-])N3C(=O)C(NC(=O)[C@H](NC(=O)c4cnc5cccnc5c4O)c4ccc(O)c(Cl)c4)C3SC2)c1 (stereo partly drawn) [BB-S604, 7-[D-α-(4-Hydroxy-1,5-naphthyridine-3-carboxamido)-α-(3-chloro-4-hydroxyphenyl)acetamido]-3-(3-carboxymethylpyridinium)-methyl-3-cephem-4-carboxylate]
[1]
  In vitro relative activity, primary evaluation Gn-I (13): 94%
[2]
  ED50: 6.2 mg/kg
[3]
  In vitro relative activity, primary evaluation Gn-II (6): 45%
Ps. aeruginosa
  In vitro relative activity, primary evaluation Ps (6): 1450%
Pseudomonas aeruginosa
  In vitro relative activity, secondary, Pseudomonas aeruginosa (61-64): 2030%
[4]
  half-life: 56 min
  Cmax: 10.5 µg/mL
S. aureus
  In vitro relative activity, primary evaluation Gp (6): 50%
[5]
  ED50: 2.5 mg/kg
Escherichia coli Juhl
  ED50: 2.4 mg/kg

## O=C([O-])C1=C(C[n+]2ccc(CCS(=O)(=O)O)cc2)CSC2C(NC(=O)[C@H](NC(=O)c3cnc4cccnc4c3O)c3ccc(O)c(Cl)c3)C(=O)N12 (stereo partly drawn) [BB-S605, 7-[D-α-(4-Hydroxy-1,5-naphthyridine-3-carboxamido)-α-(3-chloro-4-hydroxyphenyl)acetamido]-3-(4-sulfoethylpyridinium)-methyl-3-cephem-4-carboxylate]
[1]
  In vitro relative activity, primary evaluation Gn-I (13): 83%
[2]
  ED50: 8.4 mg/kg
[3]
  In vitro relative activity, primary evaluation Gn-II (6): 40%
Ps. aeruginosa
  In vitro relative activity, primary evaluation Ps (6): 1310%
Pseudomonas aeruginosa
  In vitro relative activity, secondary, Pseudomonas aeruginosa (61-64): 1300%
[4]
  half-life: 54 min
  Cmax: 9.4 µg/mL
S. aureus
  In vitro relative activity, primary evaluation Gp (6): 40%
[5]
  ED50: 3.1 mg/kg
Escherichia coli Juhl
  ED50: 3.1 mg/kg

## O=C([O-])C1=C(C[n+]2cccc(C(=O)O)c2)CSC2C(NC(=O)[C@H](NC(=O)c3cnc4cccnc4c3O)c3ccccc3)C(=O)N12 (stereo partly drawn) [BB-S606, 7-[D-α-(4-Hydroxy-1,5-naphthyridine-3-carboxamido)-α-phenyl-acetamido]-3-(3-carboxypyridinium)methyl-3-cephem-4-carboxylate]
[1]
  In vitro relative activity, primary evaluation Gn-I (13): 16%
[2]
  ED50: 25 mg/kg
[3]
  In vitro relative activity, primary evaluation Gn-II (6): 11%
Ps. aeruginosa
  In vitro relative activity, primary evaluation Ps (6): 656%
Pseudomonas aeruginosa
  In vitro relative activity, secondary, Pseudomonas aeruginosa (61-64): 624%
[4]
  half-life: 55 min
  Cmax: 11 µg/mL
S. aureus
  In vitro relative activity, primary evaluation Gp (6): 45%
[5]
  ED50: 4.2 mg/kg
Solubility in water
  solubility: 250 mg/mL (≈ 390 mM)

## O=C([O-])C1=C(C[n+]2cccc(C(=O)O)c2)CSC2C(NC(=O)[C@H](NC(=O)c3cnc4cccnc4c3O)c3ccc(O)c(O)c3)C(=O)N12 (stereo partly drawn) [BB-S608]
[1]
  In vitro relative activity, primary evaluation Gn-I (13): 53%
[2]
  ED50: 2.4 mg/kg
[3]
  In vitro relative activity, primary evaluation Gn-II (6): 14%
Ps. aeruginosa
  In vitro relative activity, primary evaluation Ps (6): 975%
Pseudomonas aeruginosa
  In vitro relative activity, secondary, Pseudomonas aeruginosa (61-64): 1207%
[4]
  half-life: 50 min
  Cmax: 8.5 µg/mL
S. aureus
  In vitro relative activity, primary evaluation Gp (6): 13%
[5]
  ED50: 8.5 mg/kg
Escherichia coli Juhl
  ED50: 1.4 mg/kg

## O=C([O-])C1=C(C[n+]2cccc(S(=O)(=O)O)c2)CSC2C(NC(=O)[C@H](NC(=O)c3cnc4cccnc4c3O)c3ccc(O)c(O)c3)C(=O)N12 (stereo partly drawn) [BB-S609, 7-[D-α-(4-Hydroxy-1,5-naphthyridine-3-carboxamido)-α-(3,4-dihydroxyphenyl)acetamido]-3-(3-sulfopyridinium)methyl-3-cephem-4-carboxylate]
[1]
  In vitro relative activity, primary evaluation Gn-I (13): 53%
[2]
  ED50: 1.2 mg/kg
[3]
  In vitro relative activity, primary evaluation Gn-II (6): 11%
Ps. aeruginosa
  In vitro relative activity, primary evaluation Ps (6): 1450%
Pseudomonas aeruginosa
  In vitro relative activity, secondary, Pseudomonas aeruginosa (61-64): 1375%
[4]
  half-life: 51 min
  Cmax: 7.4 µg/mL
S. aureus
  In vitro relative activity, primary evaluation Gp (6): 18%
[5]
  ED50: 17 mg/kg
Escherichia coli Juhl
  ED50: 1.8 mg/kg

## O=C(O)C=Cc1ccc[n+](CC2=C(C(=O)[O-])N3C(=O)C(NC(=O)[C@H](NC(=O)c4cnc5cccnc5c4O)c4ccc(O)c(O)c4)C3SC2)c1 (stereo partly drawn) [BB-S610]
[1]
  In vitro relative activity, primary evaluation Gn-I (13): 57%
[2]
  ED50: 2.8 mg/kg
[3]
  In vitro relative activity, primary evaluation Gn-II (6): 14%
Ps. aeruginosa
  In vitro relative activity, primary evaluation Ps (6): 656%
Pseudomonas aeruginosa
  In vitro relative activity, secondary, Pseudomonas aeruginosa (61-64): 491%
[4]
  half-life: 60 min
  Cmax: 6.2 µg/mL
S. aureus
  In vitro relative activity, primary evaluation Gp (6): 16%
[5]
  ED50: 17 mg/kg
Escherichia coli Juhl
  ED50: 1.8 mg/kg
